pIC50: −log10 of the molar value.
Legend:
[1] = target: T1, mitochondrial respiratory chain Complex I; assay: spectrophotometric rotenone-sensitive NADH-CoQ reductase activity in isolated MEF mitochondria; format: biochemical, Mus musculus
T1 construct: gene Mtnd1; multi-subunit complex in mitochondria isolated from MEF

[2] = system: T1, mitochondrial respiratory chain Complex I; assay: spectrophotometric NADH-CoQ reductase activity in isolated MEF mitochondria, single concentration of […]; format: biochemical, Mus musculus

## CCc1cncnc1N1CCN(Cc2nc3cc(C(F)(F)F)ccc3[nH]2)CC1 [PF-4708671]
[1]
  pIC50: 5.28

## CN(C)C(=N)N=C(N)N [metformin]
[2]
  spectrophotometric NADH-CoQ reductase activity in isolated MEF mitochondria, sin: 5 mM

— article PMC4159345, “PF-4708671 Activates AMPK Independently of p70S6K1 Inhibition” (PLoS ONE, 2014)
